The values below come from US5696153A, “Therapeutic regimen for treating patients” (priority 1996, dated 1997).

The structures appear in SMILES notation.

The test system of experiment [1] is ovarian and breast cancers. The settings on record: background statement; cited from earlier work.
A further experiment relates to SK-N-AS cells. Kind of experiment: Sensitivity to a second dose of taxol at different times after a first dose (FIG. 1). It counts as cell-based, human.

With `CC(=O)O[C@H]1C(=O)[C@@]2(C)[C@H]([C@H](OC(=O)c3ccccc3)[C@]3(O)C[C@H](OC(=O)[C@H](O)[C@@H](NC(=O)c4ccccc4)c4ccccc4)C(C)=C1C3(C)C)[C@]1(OC(C)=O)CO[C@@H]1C[C@@H]2O` [taxol], the “antitumor activity in words” value in experiment [1] was “among the most active single agent for ovarian and breast cancers”. In the experiment on SK-N-AS cells (after initial exposure, concluded), the “time to revertant taxol susceptibility” value is on record as “four”. Further, in the experiment with SK-N-AS cells (second dose 24 to 120 hours after first, two experiments), the “sensitivity to second dose of taxol” value was “rebounded at the fourth day and continued to the fifth day to the original sensitivity levels”.
